Assay [1] concerns the target T1, human OX2 receptor (Homo sapiens, UniProt O43614).
T1 construct: expressed in transfected cells; host or cells: CHO cells
T1 sequence (O43614 1-444): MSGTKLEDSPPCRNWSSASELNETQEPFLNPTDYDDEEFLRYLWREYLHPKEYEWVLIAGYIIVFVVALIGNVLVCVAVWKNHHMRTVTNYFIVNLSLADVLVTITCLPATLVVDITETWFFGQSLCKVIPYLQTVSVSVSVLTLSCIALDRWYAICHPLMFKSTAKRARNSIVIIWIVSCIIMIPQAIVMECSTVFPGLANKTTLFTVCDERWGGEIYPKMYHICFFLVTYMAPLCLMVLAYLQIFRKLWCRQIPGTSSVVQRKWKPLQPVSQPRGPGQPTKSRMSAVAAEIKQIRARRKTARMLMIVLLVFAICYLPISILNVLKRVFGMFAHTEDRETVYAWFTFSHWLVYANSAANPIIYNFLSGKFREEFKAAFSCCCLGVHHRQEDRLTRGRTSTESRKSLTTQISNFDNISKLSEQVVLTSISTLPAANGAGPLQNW
Put plainly: Measurement of orexin receptor antagonistic activity (calcium fluorescence, FLIPRtetra). It is filed as cell-based. The conditions noted are these: CHO, read-out: Human Orexin2 receptor inhibition (at 10 μM). The procedure, abridged:
(§1)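 Calcium fluorescence measured by FLIPRtetra every second for 2 min after orexin-A challenge, 1 nM final for OX1 and 0.3 nM final for OX2. Receptor-expressing CHO cells received compound in HEPES-buffered HBSS with 0.1% BSA just before agonist.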

The target of assay [2] is T2, human OX1 receptor (Homo sapiens, UniProt O43613).
T2 construct: expressed in transfected cells; host or cells: CHO cells
T2 sequence (O43613 1-425): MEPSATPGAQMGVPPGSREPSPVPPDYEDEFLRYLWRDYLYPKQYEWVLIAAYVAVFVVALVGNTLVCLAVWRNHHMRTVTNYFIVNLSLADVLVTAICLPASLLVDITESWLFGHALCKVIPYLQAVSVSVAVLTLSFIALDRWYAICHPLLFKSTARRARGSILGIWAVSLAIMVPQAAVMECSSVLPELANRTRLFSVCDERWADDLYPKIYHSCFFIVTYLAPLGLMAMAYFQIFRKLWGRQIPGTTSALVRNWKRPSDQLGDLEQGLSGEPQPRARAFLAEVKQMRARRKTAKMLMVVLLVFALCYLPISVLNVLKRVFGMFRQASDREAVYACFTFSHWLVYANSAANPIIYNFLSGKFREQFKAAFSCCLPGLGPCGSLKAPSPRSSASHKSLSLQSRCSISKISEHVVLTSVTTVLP
The description is as above. It is filed as cell-based. The conditions noted are these: for inhibition at 10 µM: CHO, read-out: Human Orexin1 receptor inhibition (at 10 μM). The method, boiled down:
as §1

Setting [3] is: 10 μM test compound, CHO cells expressing human OX2 receptor, OX-A 0.3 nM.
[4] abbreviates: 10 μM test compound, CHO cells expressing human OX1 receptor, OX-A 1 nM.

Where a name gives a salt, the structure may show the parent alone. Read-outs that look alike come from different tables or passages of the source.

The text below walks through data of patent US10131653B2, “Heterocyclic compound” (TAKEDA PHARMACEUTICAL COMPANY LIMITED, priority 2015, dated 2018).

Turning to `Cc1cc(C)nc(N2CCN(C(=O)c3ccc(C#N)cc3)CCO2)n1` [Example 50, 4-((2-(4,6-dimethylpyrimidin-2-yl)-1,2,5-oxadiazepan-5-yl)carbonyl) benzonitrile], the results for the inhibition at 10 µM in assay [1] (setting [3]) and in assay [2] (setting [4]) were -3% and 3%, respectively.

Consider `C[C@@H]1CON(c2cc(C3CC3)ncn2)CCN1C(=O)c1ccccc1-n1nccn1` [Example 150, ((6R)-2-(6-cyclopropylpyrimidin-4-yl)-6-methyl-1,2,5-oxadiazepan-5-yl) (2-(2H-1,2,3-triazol-2-yl)phenyl)methanone], for which the inhibition (usually the relative decrease from the control value, in per cent) at 10 µM in assay [1] (setting [3]) worked out at 99%; in assay [2] (setting [4]) it was 58%.

Turning to `Cc1cc(N2CCN(C(=O)c3ccccc3-n3nccn3)C(C)C(C)O2)nc(C)n1` (stereo not drawn) [Example 192, (2-(2,6-dimethylpyrimidin-4-yl)-6,7-dimethyl-1,2,5-oxadiazepan-5-yl)(2-(2H-1,2,3-triazol-2-yl)phenyl)methanone], in assay [1] (setting [3]), the inhibition at 10 µM was determined as 101%. In addition, the “Human Orexin1 receptor inhibition (at 10 μM)” value in assay [2] (setting [4]) is 64%.

Turning to `Cc1nc(C(F)F)cc(N2C[C@H](C)N(C(=O)c3cc(F)ccc3-n3nccn3)[C@H](C)CO2)n1` [Example 180, ((4S,6R)-2-(6-(difluoromethyl)-2-methylpyrimidin-4-yl)-4,6-dimethyl-1,2,5-oxadiazepan-5-yl)(5-fluoro-2-(2H-1,2,3-triazol-2-yl)phenyl)methanone], the inhibition at 10 µM in assay [1] (setting [3]) worked out at 101%; in assay [2] (setting [4]), 90%.

As to `Cc1cc(C)nc(N2CCN(C(=O)c3cccc4nn(C)cc34)CCO2)n1` [Example 69, (2-(4,6-dimethylpyrimidin-2-yl)-1,2,5-oxadiazepan-5-yl) (2-methyl-2H-indazol-4-yl) methanone], the inhibition at 10 µM in assay [1] stood at 45%; in assay [2], 3%.

Turning to `Cc1cc(C#N)nc(N2CCN(C(=O)c3cc(F)ccc3-n3nccn3)[C@H](C)CO2)n1` [Example 163, 2-((6R)-5-(5-fluoro-2-(2H-1,2,3-triazol-2-yl)benzoyl)-6-methyl-1,2,5-oxadiazepan-2-yl)-6-methylpyrimidine-4-carbonitrile], the inhibition at 10 µM in assay [1] (setting [3]) amounted to 102%; in assay [2] (setting [4]) it was 61%.

On to `Cc1cc(N2CCN(C(=O)c3ccccc3-c3nccs3)C[C@H](C)O2)nc(C)n1` [Example 84, ((7S)-2-(2,6-dimethylpyrimidin-4-yl)-7-methyl-1,2,5-oxadiazepan-5-yl)(2-(1,3-thiazol-2-yl)phenyl)methanone], for which the inhibition at 10 µM was 98% in assay [1] (setting [3]) and 100% in assay [2] (setting [4]).

As for `Cc1cc(N2CC(C)N(C(=O)c3ccccc3-n3nccn3)C[C@H](C)O2)nc(C)n1` (stereo partly drawn) [Example 189, ((7S)-2-(2,6-dimethylpyrimidin-4-yl)-4,7-dimethyl-1,2,5-oxadiazepan-5-yl)(2-(2H-1,2,3-triazol-2-yl)phenyl)methanone], the figures for the inhibition at 10 µM in assay [1] (setting [3]) and in assay [2] (setting [4]) were 57% and 37%, respectively.

On to `Cc1cc(C)nc(N2CCN(C(=O)c3cccc4ccccc34)CCO2)n1` [Example 64, (2-(4,6-dimethylpyrimidin-2-yl)-1,2,5-oxadiazepan-5-yl) (1-naphthyl)methanone], for which the inhibition at 10 µM in assay [1] (setting [3]) turned out to be 101%; in assay [2] (setting [4]) it was 76%.

`Cc1cc(C)nc(N2CCN(C(=O)c3cccc(Cl)c3Cl)CCO2)n1` [Example 55, (2,3-dichlorophenyl) (2-(4,6-dimethylpyrimidin-2-yl)-1,2,5-oxadiazepan-5-yl)methanone]: the values for the inhibition at 10 µM in assay [1] (setting [3]) and in assay [2] (setting [4]) were 96% and 18%, respectively.

With `Cc1nc(N2CCN(C(=O)c3cc(Cl)ccc3-c3ncccn3)CCO2)cc(C(F)(F)F)n1` [Example 225, (5-chloro-2-(pyrimidin-2-yl)phenyl)(2-(2-methyl-6-(trifluoromethyl)pyrimidin-4-yl)-1,2,5-oxadiazepan-5-yl)methanone], the results for the inhibition at 10 µM in assay [1] (setting [3]) and in assay [2] (setting [4]) were 103% and 74%, respectively.

In the case of `CCc1ccnc(N2CCN(C(=O)c3ccccc3-n3nccn3)[C@H](C)CO2)n1` [Example 151, ((6R)-2-(4-ethylpyrimidin-2-yl)-6-methyl-1,2,5-oxadiazepan-5-yl) (2-(2H-1,2,3-triazol-2-yl)phenyl)methanone], the results for the inhibition at 10 µM in assay [1] (setting [3]) and in assay [2] (setting [4]) were 98% and 81%, respectively.

Turning to `Cc1cc(N2CCN(C(=O)c3c(F)cccc3-n3nccn3)CCO2)nc(C)n1` [Example 16, (2-(2,6-dimethylpyrimidin-4-yl)-1,2,5-oxadiazepan-5-yl) (2-fluoro-6-(2H-1,2,3-triazol-2-yl)phenyl)methanone hydrochloride], the inhibition at 10 µM came to 98% in assay [1] (setting [3]) and 21% in assay [2] (setting [4]).

Turning to `Cc1cc(N2CCN(C(=O)c3ccc(Cl)cc3-n3nccn3)C[C@H](C)O2)nc(C)n1` [Example 200, (4-chloro-2-(2H-1,2,3-triazol-2-yl)phenyl)((7S)-2-(2,6-dimethylpyrimidin-4-yl)-7-methyl-1,2,5-oxadiazepan-5-yl)methanone], the figures for the inhibition at 10 µM in assay [1] (setting [3]) and in assay [2] (setting [4]) were 100% and 83%, respectively.

Regarding `Cc1cc(C)nc(N2CCN(C(=O)c3ccccc3)CCO2)n1` [Example 46, (2-(4,6-dimethylpyrimidin-2-yl)-1,2,5-oxadiazepan-5-yl) (phenyl)methanone], the results for the inhibition at 10 µM in assay [1] (setting [3]) and in assay [2] (setting [4]) were 36% and 4%, respectively.

For the molecule `Cc1ccc(-n2nccn2)c(C(=O)N2CCN(c3ccc(F)c(Cl)c3)OC[C@H]2C)c1` [Example 134, ((6R)-2-(3-chloro-4-fluorophenyl)-6-methyl-1,2,5-oxadiazepan-5-yl) (5-methyl-2-(2H-1,2,3-triazol-2-yl)phenyl)methanone], the inhibition at 10 µM came to 80% in assay [1] and 92% in assay [2].

With `Cc1nc(N2CCN(C(=O)c3cc(Cl)ccc3-n3nccn3)C[C@H](C)O2)cc(C(F)(F)F)n1` [Example 3, (5-chloro-2-(2H-1,2,3-triazol-2-yl)phenyl)((7S)-7-methyl-2-(2-methyl-6-(trifluoromethyl)pyrimidin-4-yl)-1,2,5-oxadiazepan-5-yl)methanone], the inhibition at 10 µM in assay [1] (setting [3]) amounted to 100%; in assay [2] (setting [4]), 87%.

On to `Cc1ccc(-n2nccn2)c(C(=O)N2CCON(c3cc(C)nc(C)n3)CC2)c1` [Example 4, (2-(2,6-dimethylpyrimidin-4-yl)-1,2,5-oxadiazepan-5-yl)(5-methyl-2-(2H-1,2,3-triazol-2-yl)phenyl)methanone], for which the inhibition at 10 µM came out at 96% in assay [1] (setting [3]) and 62% in assay [2] (setting [4]).

For `Cc1cc(N2C[C@@H](C)N(C(=O)c3ccccc3-c3nccs3)[C@@H](C)CO2)nc(C)n1` [Example 186, ((4R,6S)-2-(2,6-dimethylpyrimidin-4-yl)-4,6-dimethyl-1,2,5-oxadiazepan-5-yl)(2-(1,3-thiazol-2-yl)phenyl)methanone], the inhibition at 10 µM in assay [1] (setting [3]) amounted to 66%; in assay [2] (setting [4]) it was 23%.

Consider `Cc1cc(N2CCN(C(=O)c3ccccc3-c3cncs3)CCO2)nc(C)n1` [Example 32, (2-(2,6-dimethyl-pyrimidin-4-yl)-1,2,5-oxadiazepan-5-yl) (2-(1,3-thiazol-5-yl)phenyl) methanone], for which the inhibition at 10 µM in assay [1] (setting [3]) turned out to be 96%; in assay [2] (setting [4]), 38%.

Take `Cc1cc(C)nc(N2CCN(C(=O)c3cccc4c3OC(C)(C)C4)CCO2)n1` [Example 75, (2,2-dimethyl-2,3-dihydro-1-benzofuran-7-yl) (2-(4,6-dimethylpyrimidin-2-yl)-1,2,5-oxadiazepan-5-yl)methanone]: the inhibition at 10 µM in assay [1] turned out to be 75%; in assay [2] it was 10%.
